# Test results: patent publication US10561748B2, “Anthranilic acid derivatives” (priority 2014, dated 2020)
# Where two headings read alike, the source gives them in different places.
# Columns and labels:
# P-gp [1] = molecular target: T1, P-gp (Homo sapiens, UniProt P08183); assay: ATP-ase cell depletion (luminescence) in MDCK-MDR1 cells; type: cell-based; design: expressed in transfected cells; host or cells: MDCK-P-gp (MDCK cells stably overexpressing human P-gp); conditions: at 1 μM, 2 h
# Method: In order to establish the intrinsic mechanism of compound of Formula la in […] has been defined if it was able to deplete ATP. Compound able to deplete ATP can be considered P-gp substrate while ligand unable to deplete ATP is considered P-gp inhibitor.
# The MDCK-MDR1 cells were seeded into 96-well microplate in 100 μL of complete medium at a density 2×10^4 cells/well. The plate was incubated overnight in a humidified atmosphere 5% CO2 at 37° C. The medium was removed and 100 μL of complete medium in the presence or absence of different concentrations of compound of Formula 1a was added. The plate was incubated for 2 h in a humidified atmosphere 5% CO2 at 37° C. Fifty microlitres of mammalian cell lysis solution was added to all wells and the plate was shaken for 5 min in an orbital shaker. Fifty microlitres of substrate solution was added to all wells and the plate was shaken for 5 min in an orbital shaker. The plate was dark adapted for 10 min and the luminescence was measured.
# [2] = Metabolic stability by rat liver microsomes; type: in vitro ADME
# Method: Metabolic stability of compound of Formula la was evaluated by incubating test compounds with rat liver microsomes and monitoring parent disappearance within 30 mins using HPLC.
# • Column: KINE IEX-C18 • Column temperature: 40° C. • Mobile phase: Gradient. A was 0.1% formic acid in water. B was MeCN. A:B 95:5 to 30:70 over 10 min, to 20:80 over 5 min. • Flow rate: 0.5 ml/min • Injection volume: 50 μL
# FIG. 5 illustrated a Chromatogram of Formula la incubated with microsomes fraction only without NADPH regenerating system wherein 489.88 mAU*s represents ligand concentration after incubation Ccontrol. FIG. 6 illustrates a Chromatogram of compound of Formula 1a incubated in the presence of microsomes and NADPH regenerating system wherein 429.56 mAU*s represents ligand concentration Cparent.
# BCRP = molecular target: T2, BCRP (Homo sapiens, UniProt Q9UNQ0); assay: Activity in MDCK-BCRP cells, fluorescent probe Rhodamine; type: cell-based
# T2 construct: expressed in transfected cells; host or cells: MDCK-BCRP
# T2 sequence (Q9UNQ0 1-655): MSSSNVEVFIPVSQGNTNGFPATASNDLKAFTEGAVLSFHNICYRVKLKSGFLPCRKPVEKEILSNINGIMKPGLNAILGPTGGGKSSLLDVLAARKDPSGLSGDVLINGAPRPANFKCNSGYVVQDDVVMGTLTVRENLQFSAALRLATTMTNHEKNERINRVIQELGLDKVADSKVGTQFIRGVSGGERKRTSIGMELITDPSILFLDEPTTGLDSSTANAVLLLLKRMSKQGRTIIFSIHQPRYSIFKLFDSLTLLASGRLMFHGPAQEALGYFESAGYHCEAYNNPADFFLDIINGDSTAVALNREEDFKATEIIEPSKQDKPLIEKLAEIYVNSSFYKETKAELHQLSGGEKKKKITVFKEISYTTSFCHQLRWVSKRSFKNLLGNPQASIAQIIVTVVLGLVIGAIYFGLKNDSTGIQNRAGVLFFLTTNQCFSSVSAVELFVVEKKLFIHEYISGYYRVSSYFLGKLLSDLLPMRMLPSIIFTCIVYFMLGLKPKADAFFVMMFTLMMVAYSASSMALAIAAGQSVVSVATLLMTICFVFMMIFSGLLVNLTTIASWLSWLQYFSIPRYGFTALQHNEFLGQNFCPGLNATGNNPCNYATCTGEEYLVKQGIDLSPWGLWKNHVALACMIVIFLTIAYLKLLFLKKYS
# From the text: (§1) • A. Three different cell lines have been employed: MDCK-P-gp (fluorescent probe Calcein-AM), MDCK-BCRP (florescent probe Rhodamine) and MDCK-MRP1 (fluorescent probe Calcein-AM). These cells overexpress stably human P-gp or BCRP or MRP1. • i.
# P-gp [3] = molecular target: T1, P-gp; assay: cell-based
# From the text: as §1
# MDCK-MDR1 = assay: Cytotoxicity, MTT assay; type: cell-based; conditions: 100 microM
# Method: Determination of cell growth was performed using the MTT assay at 24 and 48 h. On day 1, 30,000 cells/well were seeded into96-well plates in a volume of 100 μL. On day 2, the various drugs concentration (0.1-100 μM) were added. In all the experiments, the various drug-solvents (ethanol, DMSO) were added in each control to evaluate a possible solvent cytotoxicity. After the established incubation time with compound of Formula 1a, MTT(0.5 mg/mL) was added to each well, and after 3 h incubation at 37° C., the supernatant was removed.
# [4] = Metabolites (human microsomes), unchanged form; type: in vitro ADME
# From the text: Metabolites (Human Microsomes)
# MRP1 = molecular target: T3, MRP1 (Homo sapiens, UniProt P33527); assay: Activity in MDCK-MRP1 cells, fluorescent probe Calcein-AM; type: cell-based
# T3 construct: expressed in transfected cells; host or cells: MDCK-MRP1
# T3 sequence (P33527 whole entry): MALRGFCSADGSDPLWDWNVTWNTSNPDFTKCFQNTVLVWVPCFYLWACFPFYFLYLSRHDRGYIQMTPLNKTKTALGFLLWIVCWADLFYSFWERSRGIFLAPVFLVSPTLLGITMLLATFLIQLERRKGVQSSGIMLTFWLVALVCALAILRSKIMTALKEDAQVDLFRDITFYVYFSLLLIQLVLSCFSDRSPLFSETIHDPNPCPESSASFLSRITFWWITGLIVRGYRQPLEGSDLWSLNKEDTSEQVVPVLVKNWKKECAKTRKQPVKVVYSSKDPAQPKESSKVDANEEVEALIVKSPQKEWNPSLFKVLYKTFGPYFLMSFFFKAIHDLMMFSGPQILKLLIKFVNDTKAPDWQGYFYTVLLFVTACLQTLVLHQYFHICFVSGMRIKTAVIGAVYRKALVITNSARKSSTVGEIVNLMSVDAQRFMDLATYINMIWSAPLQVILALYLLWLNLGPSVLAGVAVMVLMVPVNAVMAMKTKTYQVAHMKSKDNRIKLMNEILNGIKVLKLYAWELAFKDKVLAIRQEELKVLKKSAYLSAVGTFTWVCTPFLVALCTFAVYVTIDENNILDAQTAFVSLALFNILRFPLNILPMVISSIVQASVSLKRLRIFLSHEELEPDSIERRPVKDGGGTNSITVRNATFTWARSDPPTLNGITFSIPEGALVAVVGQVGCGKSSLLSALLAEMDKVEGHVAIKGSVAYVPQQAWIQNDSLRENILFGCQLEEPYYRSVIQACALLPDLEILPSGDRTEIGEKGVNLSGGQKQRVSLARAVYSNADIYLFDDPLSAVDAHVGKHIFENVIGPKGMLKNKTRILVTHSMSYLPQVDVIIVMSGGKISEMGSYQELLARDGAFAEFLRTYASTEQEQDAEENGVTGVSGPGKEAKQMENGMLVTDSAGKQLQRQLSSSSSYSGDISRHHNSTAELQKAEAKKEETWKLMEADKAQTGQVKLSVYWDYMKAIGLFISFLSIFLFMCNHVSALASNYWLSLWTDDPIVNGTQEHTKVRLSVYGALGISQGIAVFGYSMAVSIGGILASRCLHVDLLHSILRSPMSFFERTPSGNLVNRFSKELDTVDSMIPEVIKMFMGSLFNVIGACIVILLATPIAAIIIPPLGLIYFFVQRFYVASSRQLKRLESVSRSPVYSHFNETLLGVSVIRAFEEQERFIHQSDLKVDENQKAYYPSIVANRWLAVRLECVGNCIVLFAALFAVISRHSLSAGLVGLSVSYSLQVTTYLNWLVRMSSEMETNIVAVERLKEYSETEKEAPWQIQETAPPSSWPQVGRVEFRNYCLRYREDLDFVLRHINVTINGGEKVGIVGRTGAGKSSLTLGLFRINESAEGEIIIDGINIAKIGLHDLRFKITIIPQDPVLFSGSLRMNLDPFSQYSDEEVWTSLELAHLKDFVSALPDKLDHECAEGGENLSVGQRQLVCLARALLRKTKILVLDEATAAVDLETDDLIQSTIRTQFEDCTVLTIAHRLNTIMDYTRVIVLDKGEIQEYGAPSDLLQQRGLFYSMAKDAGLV
# From the text: as §1
# P-gp [5] = assay: Apparent permeability in Caco-2 cells (BA/AB); type: in vitro ADME; conditions: human, BA/AB >2 = transported by P-gp, read-out: Apparent Permeability (B→A/A→B)
# Method: Ligands displaying BA/AB >2 are transported while ligands having BA/AB <2 are not transported by P-gp.
# Caco-2 cells were seeded onto a Millicell assay system (Millipore), where a cell monolayer is set in between a filter cell and a receiver plate, at a density of 10,000 cells/well. The culture medium was replaced every 48 h and the cells kept for 21 days in culture. The Trans Epithelial Electrical Resistance (TEER) of the monolayers was measured daily, before and after the experiment, using an epithelial voltohometer (Millicell-ERS). Generally, TEER values greater than 1000× for a 21 day culture, are considered optimal. Caco-2 cells were seeded onto a Millicell assay system (Millipore), where a cell monolayer is set in between a filter cell and a receiver plate, at a density of 10,000 cells/well. The culture medium was replaced every 48 h and the cells kept for 21 days in culture. The Trans Epithelial Electrical Resistance (TEER) of the monolayers was measured daily, before and after the experiment, using an epithelial voltohometer (Millicell-ERS). Generally, TEER values greater than 1000× for a 21 day culture, are considered. After 21 days of Caco-2 cell growth, the medium was removed from filter wells and from the receiver plate, which were filled with fresh MSS buffer (Invitrogen). […] The apparent permeability (Papp), in units of nm/s, was calculated.
# [6] = Everted gut sac: crossing to mucosal compartment and stability; type: in vitro ADME
# Method: The compound of Formula la has been inserted in serosal compartment of […] and for 120 mins has been tested: • 1. The concentration in mucosal compartment • 2. The stability in serosal/mucosal compartment
# [7] = tested on: plasma proteins based on human serum albumin and human α1 acid glycoprotein; assay: Protein Plasma Binding (PPB) assay (TRANSIL); type: in vitro ADME; conditions: read-out: kD (dissociation constant, plasma protein binding)
# Method: (§2) Plasma protein binding is measured in terms of the dissociation constant KD: KD=[compound 1a] [P]/[compound 1a-P], wherein [compound 1a-P] is the concentration of compound of Formula 1a bound to the protein P and where [compound 1a] denotes the free concentration of compound of Formula 1a and [P] denotes the free concentration of protein. […] This means there is high free unbound radiotracer available to bind with the target protein for detection.
# (§3) fb represents an estimation of the fraction bound to plasma proteins based on human serum albumin and human α1 acid glycoprotein. Binding to other low abundance plasma proteins like lipoproteins, transcortin, and sex hormone binding protein is not considered.
# (§4) The TRANSIL Quality Index (TQI) is based on five independent measures derived from the data analysis. For each individual measure a partial quality score on a scale between 0 and 10 is attributed to the estimate. 0 represents lowest quality, while 10 represents highest quality. The final quality index is a weighted average of the partial quality scores.
# (§5) Plasma protein binding is measured in terms of the dissociation constant KD: KD=[TQD]
# [8] = Protein Plasma Binding (PPB) assay (TRANSIL); type: in vitro ADME, human; conditions: human serum albumin and human α1 acid glycoprotein (TRANSIL); for fraction unbound: estimation based on human serum albumin and human α1 acid glycoprotein, read-out: fb (fraction bound to plasma proteins) (converted); for Kd: human, read-out: kD (dissociation constant, plasma protein binding)
# Method: as §2, §3, §4, §5
# P-gp [9] = assay: In vivo bio-distribution, microPET/CT brain uptake; design: species or system mice
# Method: A set of wild type mice subjects were injected with compound of formula 1b (i.e. [^18F]-labeled compound of formula 1a). Immediately after injection of the tracer compound, scanning was performed on the subject using a microPET/CT system. The study was conducted in deep anaesthesia (oxygen/1.5-2 isoflurane w/o drug-induction) and the animals were treated by adhering to regulatory, ethical and Animal Welfare guidelines subsequent to obtaining approvals. […] The extraction remained constant for the duration of the study and was indicative of a possible selective binding to brain structures.
# P-gp [10] = molecular target: T1, P-gp; design: expressed in transfected cells; host or cells: MDCK-P-gp (MDCK cells stably overexpressing human P-gp); conditions: literature value; read-out: EC50 as reported in Kazunori Kawamura, et al.; cited from earlier work
# T1 sequence (P08183 whole entry): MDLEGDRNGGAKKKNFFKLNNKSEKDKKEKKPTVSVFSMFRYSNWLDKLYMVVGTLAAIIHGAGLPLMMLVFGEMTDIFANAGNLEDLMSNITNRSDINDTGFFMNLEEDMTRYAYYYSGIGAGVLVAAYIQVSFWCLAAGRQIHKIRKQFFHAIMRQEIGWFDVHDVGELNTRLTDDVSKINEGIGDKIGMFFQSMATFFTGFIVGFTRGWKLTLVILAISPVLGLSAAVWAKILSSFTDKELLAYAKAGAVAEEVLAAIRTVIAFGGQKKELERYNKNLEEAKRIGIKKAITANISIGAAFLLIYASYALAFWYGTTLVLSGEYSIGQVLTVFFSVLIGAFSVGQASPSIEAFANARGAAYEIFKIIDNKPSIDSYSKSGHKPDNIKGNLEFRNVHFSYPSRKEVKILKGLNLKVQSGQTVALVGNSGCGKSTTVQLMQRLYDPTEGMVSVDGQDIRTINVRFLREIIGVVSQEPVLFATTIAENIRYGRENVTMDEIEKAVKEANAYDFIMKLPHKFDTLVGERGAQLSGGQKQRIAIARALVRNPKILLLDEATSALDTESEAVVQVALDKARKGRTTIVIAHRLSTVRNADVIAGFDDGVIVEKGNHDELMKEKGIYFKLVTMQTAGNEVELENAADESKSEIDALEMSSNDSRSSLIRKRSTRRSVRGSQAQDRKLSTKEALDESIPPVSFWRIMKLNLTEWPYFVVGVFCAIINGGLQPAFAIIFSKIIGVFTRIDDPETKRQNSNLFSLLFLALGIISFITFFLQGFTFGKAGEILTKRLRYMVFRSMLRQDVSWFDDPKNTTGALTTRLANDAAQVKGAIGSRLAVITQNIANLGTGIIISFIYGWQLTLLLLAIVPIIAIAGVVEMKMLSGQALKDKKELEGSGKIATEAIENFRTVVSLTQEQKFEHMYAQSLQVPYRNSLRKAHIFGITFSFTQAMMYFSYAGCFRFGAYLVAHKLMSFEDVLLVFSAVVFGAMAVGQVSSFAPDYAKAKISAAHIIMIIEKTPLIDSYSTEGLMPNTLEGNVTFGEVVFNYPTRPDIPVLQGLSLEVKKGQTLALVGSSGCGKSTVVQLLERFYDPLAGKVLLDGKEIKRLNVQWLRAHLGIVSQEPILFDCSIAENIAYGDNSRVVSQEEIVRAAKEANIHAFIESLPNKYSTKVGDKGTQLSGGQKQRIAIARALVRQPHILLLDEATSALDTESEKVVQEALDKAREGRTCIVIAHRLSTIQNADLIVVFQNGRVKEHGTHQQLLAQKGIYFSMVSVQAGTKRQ
Structure (SMILES),ATP-ase cell depletion (P-gp [1]),EC50 (BCRP),P-gp EC50 (P-gp [3]),Cytotoxicity (MTT) (MDCK-MDR1; 24 h),Cytotoxicity (MTT) (MDCK-MDR1; 48 h),EC50 (MRP1),fraction unbound [8],Kd [8],other results
"COc1cc(NC(=O)c2cnc3ccccc3c2)c(C(=O)Nc2ccc(CCN3CCc4cc(OCCF)c(OC)cc4C3)cc2)cc1OC [Formula 1a, N-(2-((4-(2-(6-(2-fluoroethoxy)-7-methoxy-3,4-dihydroisoquinolin-2(1H)-yl)ethyl)phenyl)carbamoyl)-4,5-dimethoxyphenyl)quinoline-3-carboxamide]",20%,> 500 nM,"8,0±0.2 nM",5%,15%,> 500 nM,0.539,717000 nM,"% remaining at 30 min [2]: 88%; EC50 (P-gp [3]): 8 nM; Unchanged form (%) ([4]; after 30 min): 91%; Unchanged form (%) ([4]; after 60 min): 85%; efflux ratio at 120 min (P-gp [5]): 16 ± 0.7; Stability in serosal compartment ([6]; after 60 min): 83%; Stability in serosal compartment ([6]; after 120 min): 75%; Crossing into the mucosal compartment ([6]; inserted in serosal compartment, 120 mins): unable to cross into the mucosal compartment; Kd [7]: 717000 nM"
COc1cc(NC(=O)c2cnc3ccccc3c2)c(C(=O)Nc2ccc(CCN3CCc4cc(OCC[18F])c(OC)cc4C3)cc2)cc1OC [Formula 1b],,,,,,,,,"Brain uptake (microPET) (P-gp [9]; P-gp knock-out mice (MDR 1a/b −/−)): same reduction of uptake at brain level; Brain uptake (microPET) (P-gp [9]; wild type mice, co-injection of tariquidar): strongly reduced; Brain uptake (microPET) (P-gp [9]; wild type mice, tracer alone): binding of radiolabeled compound of formula 1b at brain level"
"COc1cc2c(cc1OC)CN(CCc1ccc(NC(=O)c3cc(OC)c(OC)cc3NC(=O)c3cnc4ccccc4c3)cc1)CC2 [Tariquidar, reference compound]",30%,> 80 nM,"4,0±0.2 nM",8%,19%,> 500 nM,0.095,64700 nM,EC50 (P-gp [10]): 24 nM
